Converted amounts (≈) assume the structure as drawn. Read-outs that look alike come from different tables or passages of the source.
How the values were obtained:
[1] = Ferric reducing antioxidant power (FRAP) assay; details: Trolox equivalents; compounds 2 mg/mL, 30 °C 30 min, 595 nm
[2] = target: acetylcholinesterase (Homo sapiens, UniProt P22303); test: biochemical; details: Tris-HCl pH 8.0, 25 °C, 405 nm; read-out: AChE IC50 (converted)
[3] = test system: Mycobacterium smegmatis ATCC607; test: MIC, microdilution, M. smegmatis; assay type: cell-based; details: Mycolicibacterium smegmatis, ATCC607, 72 h
[4] = Copper ions reducing activity (CUPRAC); details: Trolox equivalents; 30 min dark, room temperature, 450 nm
[5] = target: butyrylcholinesterase (Homo sapiens, UniProt P06276); test: biochemical; details: Tris-HCl pH 8.0, 25 °C, 405 nm; read-out: BChE IC50 (converted)
Chain of butyrylcholinesterase (P06276 29-602): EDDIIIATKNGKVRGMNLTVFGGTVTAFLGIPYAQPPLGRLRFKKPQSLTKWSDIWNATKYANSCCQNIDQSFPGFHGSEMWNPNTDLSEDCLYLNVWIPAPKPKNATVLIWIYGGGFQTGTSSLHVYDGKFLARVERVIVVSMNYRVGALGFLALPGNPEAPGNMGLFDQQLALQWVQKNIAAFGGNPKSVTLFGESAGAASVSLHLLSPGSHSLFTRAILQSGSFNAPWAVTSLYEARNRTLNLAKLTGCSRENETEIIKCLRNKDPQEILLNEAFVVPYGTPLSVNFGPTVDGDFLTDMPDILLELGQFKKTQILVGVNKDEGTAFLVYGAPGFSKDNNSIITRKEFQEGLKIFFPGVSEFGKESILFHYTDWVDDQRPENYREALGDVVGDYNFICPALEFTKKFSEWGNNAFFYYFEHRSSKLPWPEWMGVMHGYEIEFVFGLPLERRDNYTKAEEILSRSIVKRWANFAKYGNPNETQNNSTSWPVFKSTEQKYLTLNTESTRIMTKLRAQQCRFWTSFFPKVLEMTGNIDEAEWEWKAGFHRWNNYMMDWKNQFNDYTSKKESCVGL

[6] = DPPH radical scavenging activity; details: 0.1 mM DPPH, 50 min dark, 517 nm
[7] = target: α-glucosidase; test: α-Glucosidase inhibition; assay type: biochemical; details: PNPG, pH 6.8, 37 °C, 400 nm
Experimental: It was incubated at 37 °C for 15 min. Similarly, an enzyme-free blank was prepared. The reaction was stopped when sodium carbonate (50 μL, 0.2 M) was added.

[8] = test system: Enterococcus faecalis ATCC29212; test: MIC, microdilution, E. faecalis; assay type: cell-based; details: Enterococcus faecalis, ATCC29212; Gram (+); Mueller-Hinton broth, 18-24 h, 36 °C; read-out: MIC Ef
[9] = test system: Staphylococcus aureus ATCC25923; test: MIC, microdilution, S. aureus; assay type: cell-based; details: Staphylococcus aureus
[10] = test system: Yersinia pseudotuberculosis ATCC911; test: microbe, parasite or virus in culture; assay type: cell-based; details: Yersinia pseudotuberculosis, ATCC911, read-out: MIC Yp
[11] = test system: Escherichia coli ATCC 25922; test: MIC, microdilution, E. coli; assay type: cell-based; details: Escherichia coli
[12] = test system: Pseudomonas aeruginosa ATCC27853; test: MIC, microdilution, P. aeruginosa; assay type: cell-based; details: Pseudomonas aeruginosa, ATCC27853; Gram (-); Mueller-Hinton broth, 18-24 h, 36 °C; read-out: MIC Pa
[13] = test system: Candida albicans ATCC60193; test: MIC, microdilution, C. albicans; assay type: cell-based; details: Candida albicans, ATCC60193; fungus; YEPD broth, 48 h, 36 °C; read-out: MIC Ca
[14] = test system: Bacillus cereus Roma709; test: MIC, microdilution, B. cereus; assay type: cell-based; details: Bacillus cereus, ROMA709, read-out: MIC Bc

Chain of acetylcholinesterase (P22303 32-614, species assumed): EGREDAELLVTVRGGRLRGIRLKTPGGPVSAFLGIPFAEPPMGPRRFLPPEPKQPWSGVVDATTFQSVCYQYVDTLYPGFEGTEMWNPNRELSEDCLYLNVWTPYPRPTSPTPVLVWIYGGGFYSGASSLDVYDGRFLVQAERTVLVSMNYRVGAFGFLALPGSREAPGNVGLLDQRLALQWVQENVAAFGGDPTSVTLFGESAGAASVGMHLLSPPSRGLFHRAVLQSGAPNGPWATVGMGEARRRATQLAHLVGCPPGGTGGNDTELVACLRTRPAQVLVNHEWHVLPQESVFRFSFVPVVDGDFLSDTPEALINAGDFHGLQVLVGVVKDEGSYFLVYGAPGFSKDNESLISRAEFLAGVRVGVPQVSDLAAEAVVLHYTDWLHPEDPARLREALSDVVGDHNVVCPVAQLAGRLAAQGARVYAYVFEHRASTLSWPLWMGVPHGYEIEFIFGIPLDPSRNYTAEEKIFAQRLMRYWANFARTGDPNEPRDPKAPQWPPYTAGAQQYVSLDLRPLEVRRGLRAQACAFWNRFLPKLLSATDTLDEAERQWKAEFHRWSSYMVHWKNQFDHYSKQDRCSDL

O=C(C(=O)c1cccc(OC2O[C@H](CO)[C@@H](O)[C@H](O)[C@H]2O)c1)c1cccc(O)c1 (stereo partly drawn) [Compound 24, 1-(3-O-β -D-Glucopyranosylphenyl)-2-(3-hydroxyphenyl)ethane-1,2-dione]
FRAP, the iron reducing antioxidant power [1]: 2401.25 ± 56.34 μg/mL trolox/gram DW | IC50 [2]: 697 µM | MIC ([3]; read-out: MIC Ms, Tub., BHI broth, 36 °C): 15 µg/mL (≈ 37.1 µM) | CUPRAC, copper reducing antioxidant power [4]: 251.46 ± 43.08 μg/mL trolox/gram DW | IC50 [5]: 526 µM | DPPH radical scavenging capacity (SC50) [6]: 25.40 ± 0.19 mg/mL | α-Glucosidase IC50 [7]: 58.90 µg/mL

CC1(C)S[C@@H]2[C@H](NC(=O)[C@H](N)c3ccccc3)C(=O)N2[C@H]1C(=O)O [Amp., Ampicillin, reference compound]
MIC [8]: 10 µg/mL (≈ 28.6 µM) | MIC ([9]; ATCC25923, Gram (+), Mueller-Hinton broth, 18-24 h, 36 °C, read-out: MIC Sa): 35 µg/mL (≈ 100 µM) | MIC [10]: 18 µg/mL (≈ 51.5 µM) | MIC ([11]; ATCC25922, Gram (-), Mueller-Hinton broth, 18-24 h, 36 °C, read-out: MIC Ec): 10 µg/mL (≈ 28.6 µM) | MIC [12]: > 128 µg/mL

O=C(c1ccc(OC2O[C@H](CO)[C@@H](O)[C@H](O)[C@H]2O)cc1)C(O)c1ccccc1 (stereo partly drawn) [Compound 16, 2-Hydroxy-1-(4-O-β -D-glucopyranosylphenyl)-2-phenylethanone]
FRAP, the iron reducing antioxidant power [1]: 1956.25 ± 48.13 μg/mL trolox/gram DW | IC50 [2]: 399 µM | CUPRAC, copper reducing antioxidant power [4]: 73.54 ± 17.36 μg/mL trolox/gram DW | IC50 [5]: 484 µM | DPPH radical scavenging capacity (SC50) [6]: 44.75 ± 3.04 mg/mL | α-Glucosidase IC50 [7]: >1000 µg/mL

OC(Cn1cncn1)(Cn1cncn1)c1ccc(F)cc1F [Flu., Fluconazole, reference compound]
MIC [13]: < 8 µg/mL

O=C(c1ccc(OC2O[C@H](CO)[C@@H](O)[C@H](O)[C@H]2O)cc1)C(O)c1cccc(OC2O[C@H](CO)[C@@H](O)[C@H](O)[C@H]2O)c1 (stereo partly drawn) [Compound 19, 2-Hydroxy-1-(4-O-β -D-glucopyranosylphenyl)-2-(3-O-β -D-glucopyranosyl-phenyl)ethanone]
FRAP, the iron reducing antioxidant power [1]: 2612.50 ± 37.04 μg/mL trolox/gram DW | IC50 [2]: 18.5 µM | CUPRAC, copper reducing antioxidant power [4]: 421.74 ± 24.39 μg/mL trolox/gram DW | IC50 [5]: > 1760 µM | DPPH radical scavenging capacity (SC50) [6]: 8.86 ± 0.37 mg/mL | α-Glucosidase IC50 [7]: 124.94 µg/mL

O=C(c1cccc(OC2O[C@H](CO)[C@@H](O)[C@H](O)[C@H]2O)c1)C(O)c1ccccc1 (stereo partly drawn) [Compound 15, 2-Hydroxy-1-(3-O-β -D-glucopyranosylphenyl)-2-phenylethanone]
MIC [13]: 25 µg/mL (≈ 64 µM) | FRAP, the iron reducing antioxidant power [1]: 2311.04 ± 31.21 μg/mL trolox/gram DW | IC50 [2]: 30.7 µM | CUPRAC, copper reducing antioxidant power [4]: 141.74 ±28.35 μg/mL trolox/gram DW | IC50 [5]: > 2560 µM | α-Glucosidase IC50 [7]: >1000 µg/mL

O=C(c1cc(OC2O[C@H](CO)[C@@H](O)[C@H](O)[C@H]2O)cc(OC2O[C@H](CO)[C@@H](O)[C@H](O)[C@H]2O)c1)C(O)c1cccc(OC2O[C@H](CO)[C@@H](O)[C@H](O)[C@H]2O)c1 (stereo partly drawn) [Compound 20, 2-Hydroxy-1-(3,5-di-O-β -D-glucopyranosylphenyl)-2-(3-O-β -D-glucopyranosylphenyl)ethanone]
FRAP, the iron reducing antioxidant power [1]: 2918.75±36.14 μg/mL trolox/gram DW | IC50 [2]: > 1340 µM | CUPRAC, copper reducing antioxidant power [4]: 775.58±12.34 μg/mL trolox/gram DW | IC50 [5]: 254 µM | DPPH radical scavenging capacity (SC50) [6]: 7.78 ± 0.12 mg/mL | α-Glucosidase IC50 [7]: 48.25 µg/mL

O=C(C(=O)c1ccc(O)cc1)c1ccccc1 [Compound 9, 1-(4-Hydroxyphenyl)-2-phenylethane-1,2-dione]
MIC [13]: 108 µg/mL (≈ 477 µM) | MIC [14]: 108 µg/mL (≈ 477 µM) | FRAP, the iron reducing antioxidant power [1]: 1946 ± 83.7 μg/mL trolox/gram DW | IC50 [2]: 637 µM | MIC [8]: 108 µg/mL (≈ 477 µM) | MIC ([9]; ATCC25923, read-out: MIC Sa): 108 µg/mL (≈ 477 µM) | MIC ([3]; Tub., BHI broth, 36 °C, read-out: MIC Ms): 108 µg/mL (≈ 477 µM) | CUPRAC, copper reducing antioxidant power [4]: 48.33 ± 5.5 μg/mL trolox/gram DW | IC50 [5]: > 4420 µM | DPPH radical scavenging capacity (SC50) [6]: 8.64 ± 0.5 mg/mL | MIC [10]: 217 µg/mL (≈ 959 µM) | MIC ([11]; ATCC25922, read-out: MIC Ec): 108 µg/mL (≈ 477 µM) | α-Glucosidase IC50 [7]: 47.78 µg/mL | MIC [12]: 108 µg/mL (≈ 477 µM)
